The source of these data is PubChem BioAssay (NCI).

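In this assay, cells in 96-well plates receive the compound at five concentrations for 48 hours. Endpoints are linearly interpolated between the surrounding concentrations. GI50 = concentration required for 50% inhibition of growth. TGI: concentration producing complete growth inhibition.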 Bounds are passed on as bounds.

Some test systems named below: SK-MEL-28 melanoma; K-562 leukemia; SN12C renal; SK-MEL-2 melanoma; UACC-62 melanoma; U251 CNS; PC-3 prostate; A549 NSCLC; HOP-92 NSCLC; IGROV1 ovarian.
What all share (test): NCI-60 cell line screen, 48 h

`COc1ccc(C(CC(=O)c2ccc3c(c2)OCO3)c2c(O)c3ccccc3oc2=O)cc1OC` (stereo not given): the TGI in the experiment on SK-MEL-28 melanoma, in the experiment on K-562 leukemia, in the experiment with SN12C renal, in the experiment on SK-MEL-2 melanoma, with UACC-62 melanoma and in the experiment with U251 CNS was > 100 µM each time. The TGI with PC-3 prostate, in the experiment on A549 NSCLC, in the experiment on HOP-92 NSCLC and in the experiment with IGROV1 ovarian was > 100 µM in each case.
With `O=C(c1ccco1)c1c(C(F)(F)F)n([O-])c2ccc(C(F)(F)F)cc2[n+]1=O`, the GI50 with SK-MEL-28 melanoma was 0.717 µM; with K-562 leukemia it was 0.287 µM; in the experiment with SN12C renal, 0.255 µM; with SK-MEL-2 melanoma, 1.71 µM; in the experiment with UACC-62 melanoma, 1.11 µM; in the experiment on U251 CNS it was 0.217 µM. For the same compound, the GI50 in the experiment with PC-3 prostate was 0.132 µM; in the experiment on A549 NSCLC, 0.254 µM; in the experiment with HOP-92 NSCLC, 0.28 µM; in the experiment with IGROV1 ovarian, 0.368 µM. The TGI came to 1.91 µM with SK-MEL-28 melanoma; 0.765 µM in the experiment with K-562 leukemia; 0.556 µM with SN12C renal; 3.49 µM in the experiment with SK-MEL-2 melanoma; 2.32 µM in the experiment on UACC-62 melanoma; 0.536 µM in the experiment with U251 CNS. Moreover, the TGI in the experiment on PC-3 prostate is 0.262 µM; with A549 NSCLC, 0.7 µM; in the experiment with HOP-92 NSCLC, 0.718 µM; with IGROV1 ovarian, 1.48 µM.
As to `COC(=O)C1C(O)C(C(=O)OC)C(C)N(C)C1C` (stereo not given), the TGI in the experiment on SK-MEL-28 melanoma, in the experiment on K-562 leukemia, in the experiment on SN12C renal, with SK-MEL-2 melanoma, in the experiment with UACC-62 melanoma and in the experiment on U251 CNS was > 100 µM each time. In addition, the TGI in the experiment on PC-3 prostate, with A549 NSCLC, with HOP-92 NSCLC and with IGROV1 ovarian was > 100 µM throughout.
With `Cc1ccc(OCCOCCOCCOCCOc2ccc(C)n(O)c2=S)c(=S)n1O`, the GI50 with SK-MEL-28 melanoma is 0.356 µM; in the experiment on K-562 leukemia, < 0.01 µM; in the experiment on SN12C renal, 0.0266 µM; with SK-MEL-2 melanoma, 4.86 µM; with UACC-62 melanoma it was 0.115 µM; in the experiment with U251 CNS it was 0.0632 µM. The GI50 in the experiment with PC-3 prostate is 0.0155 µM; in the experiment on A549 NSCLC it was 0.0449 µM; in the experiment on HOP-92 NSCLC it was 4.78 µM; with IGROV1 ovarian, < 0.01 µM. Moreover, the TGI in the experiment on SK-MEL-28 melanoma was > 100 µM; in the experiment with K-562 leukemia, > 100 µM; in the experiment on SN12C renal, > 100 µM; with SK-MEL-2 melanoma, > 100 µM; in the experiment with UACC-62 melanoma it was 40.5 µM; with U251 CNS it was > 100 µM. Besides, the TGI was > 100 µM with PC-3 prostate, > 100 µM in the experiment with A549 NSCLC, > 90.8 µM with HOP-92 NSCLC and 54.3 µM in the experiment with IGROV1 ovarian.
On to `C#CCOc1cccc(Nc2ncnc3c(NC(=O)C=C)cccc23)c1`, for which the GI50 is 20.6 µM in the experiment with SK-MEL-28 melanoma; 7.87 µM in the experiment on K-562 leukemia; 16.5 µM with SN12C renal; 19.8 µM in the experiment with SK-MEL-2 melanoma; 12.3 µM in the experiment on UACC-62 melanoma; 30.4 µM with U251 CNS. Further, the GI50 is 15.9 µM in the experiment with PC-3 prostate, 30.9 µM in the experiment with A549 NSCLC, 13.6 µM with HOP-92 NSCLC and 17.8 µM with IGROV1 ovarian. Also, the TGI was 88.6 µM in the experiment with SK-MEL-28 melanoma; > 100 µM in the experiment with K-562 leukemia; 62.6 µM in the experiment on SN12C renal; 63.7 µM with SK-MEL-2 melanoma; 37.3 µM in the experiment with UACC-62 melanoma; > 100 µM in the experiment with U251 CNS. Also, the TGI is 67.1 µM in the experiment with PC-3 prostate, > 100 µM in the experiment with A549 NSCLC, 42.6 µM in the experiment with HOP-92 NSCLC and 44.9 µM in the experiment with IGROV1 ovarian.
With `CC(C)c1[nH]nc2c1N=C(c1ccccc1Cl)c1cc([N+](=O)[O-])ccc1N2`, the GI50 with SK-MEL-28 melanoma was 6.26 µM; in the experiment with K-562 leukemia, 1.98 µM; in the experiment on SN12C renal, 8.17 µM; in the experiment with SK-MEL-2 melanoma, 5.49 µM; in the experiment on UACC-62 melanoma, 4.18 µM; in the experiment on U251 CNS, 6.16 µM. Moreover, the GI50 was 6.7 µM in the experiment with PC-3 prostate, 5.18 µM in the experiment with A549 NSCLC, 4 µM with HOP-92 NSCLC and 9.46 µM with IGROV1 ovarian. The TGI in the experiment on SK-MEL-28 melanoma was > 25 µM; in the experiment with K-562 leukemia it was > 25 µM; in the experiment with SN12C renal, > 25 µM; with SK-MEL-2 melanoma, 13.4 µM; with UACC-62 melanoma, > 23.5 µM; in the experiment with U251 CNS, > 25 µM. Besides, the TGI was > 25 µM in the experiment on PC-3 prostate, > 22.3 µM in the experiment with A549 NSCLC, 12.6 µM in the experiment on HOP-92 NSCLC and 24.4 µM with IGROV1 ovarian.
On to `COc1ccc(-c2nccn2-c2ccc(OC)cc2)cc1`, for which the GI50 with SK-MEL-28 melanoma is 19.1 µM; in the experiment with K-562 leukemia, 6.43 µM; with SN12C renal, 20.8 µM; in the experiment on SK-MEL-2 melanoma it was 25.3 µM; in the experiment on UACC-62 melanoma, 13.9 µM; with U251 CNS, 26.3 µM. For the same compound, the GI50 in the experiment on PC-3 prostate was 24.9 µM; in the experiment on A549 NSCLC it was 25.1 µM; with HOP-92 NSCLC, 2.45 µM; with IGROV1 ovarian, 25.2 µM. Moreover, the TGI was 60.6 µM in the experiment on SK-MEL-28 melanoma; 61.4 µM in the experiment on K-562 leukemia; 50.3 µM in the experiment with SN12C renal; > 73.5 µM with SK-MEL-2 melanoma; 48.9 µM in the experiment on UACC-62 melanoma; > 72.9 µM in the experiment with U251 CNS. The TGI is > 100 µM with PC-3 prostate, > 80.5 µM in the experiment on A549 NSCLC, > 41.7 µM in the experiment with HOP-92 NSCLC and > 82 µM in the experiment with IGROV1 ovarian.
On to `O=C(NCc1ccc(Cn2c(=O)sn(-c3ccccc3)c2=O)cc1)OCc1ccc2cccc(O)c2n1`, for which the GI50 was 1.34 µM with SK-MEL-28 melanoma; 0.403 µM with K-562 leukemia; 0.907 µM in the experiment with SN12C renal; 1.46 µM with SK-MEL-2 melanoma; 1.17 µM in the experiment on UACC-62 melanoma; 1.47 µM in the experiment on U251 CNS. Further, the GI50 in the experiment with PC-3 prostate is 0.826 µM; with A549 NSCLC, 1.51 µM; with HOP-92 NSCLC, 0.459 µM; with IGROV1 ovarian, 0.596 µM. Further, the TGI was 2.64 µM in the experiment on SK-MEL-28 melanoma; > 100 µM in the experiment on K-562 leukemia; 2.24 µM in the experiment with SN12C renal; 3 µM in the experiment on SK-MEL-2 melanoma; 2.44 µM in the experiment on UACC-62 melanoma; 2.92 µM in the experiment on U251 CNS. Also, the TGI in the experiment with PC-3 prostate came to 2.42 µM; in the experiment on A549 NSCLC, 3.87 µM; in the experiment on HOP-92 NSCLC it was 1.97 µM; with IGROV1 ovarian, 1.96 µM.
